In patent publication US4704229A, “Surface-active compounds of the sulfobetaines family, their manufacture and use, particularly for enhanced oil recovery” (Institut Francais du Petrole, priority 1984, dated 1987):

Key:
Format in all cases: physicochemical
[1] = Solubility in water at 20° C.
Description: Solubility in water at 20° C. of the sulfobetaines of examples 2, 3, 5 and 7 (Table I).

[2] = Measurement of the critical micellar concentration (CMC) by surface tension (tensiometer, water/SA-ambient air interface); conditions: permuted water; for CMC: room temperature of 20° C.; for Surface tension: water/SA-ambient air interface, 20° C., Table II beside CMC
Description: Measurement of the critical micellar concentration (CMC) of the sulfobetaines of examples 2, 3, 5, and 7.
Preparation of solutions for the measurements of CMC values.
The method is a standard method using solutions of initial surfactant (SA) concentration of 0.5 g/l, in freshly permuted water, at room temperature of 20° C. The SA-water mixture is stirred up to complete dissolution and then a series of titrated solutions are obtained by successive dilution, by withdrawing a determined volume of mother-solution, brought each time to a standard volume i.e. 1 ml+39 ml; 2 ml+38 ml; 3 ml+37 ml; . . . The various solutions are stirred for 30 minutes and maintained at rest for 2 hours. The surface tensions are measured by means of a tensiometer Tensiomat n^3 Prolabo whose operating principle consists of measuring the pullout load of a stirrup piece placed at the water/SA-ambient air interface, expressed in millinewton/meter.
The CMC value corresponds to the inflection point of the obtained two straight lines.

[3] = Micro-emulsion test: determination of optimum solubility and optimum salt content parameters; conditions: pentanol as cosurfactant, dodecane as oil; brine NaCl/CaCl2 9/1
From the text: Micro-emulsion test: Determination of optimum solubility and optimum salt content parameters.
The surface-active properties have been determined by analysis of the behaviour of sulfobetaines in a mixture defined according to standard conditions:
brine (NaCl, CaCl2 with (NaCl/CaCl2)=(9/1): 4.5 g
Depending on the salt content of the brine (0-200 g/l), three mono-, di- or triphasic systems can be observed when the product has surface-active properties:
(1) the behavior referred to as Windsor I, wherein an equilibrium is observed between oil phase and με phase*.
(2) a behavior referred to as Windsor II, wherein an equilibrium is observed between με phase and aqueous phase.
(3) and, finally, a so-called Windsor III systems, wherein the intermediary με phase is in equilibrium with a supernatant oil phase and an aqueous phase.
The latter system has the pecularity of very low interfacial tensions. […] The optimum solubility and optimum salinity parameters, corresponding to equal amounts of water and oil in the micro-emulsion, are defined in this system.
By way of example, for sulfobetaine: [drawing 25] the following parameters have been obtained with pentanol as cosurfactant and dodecane as oil: […]

| solubility [1] [mg/mL] | CMC [2] [g/L] | Surface tension [2] [mN/m] | optimum salinity parameter [3] [g/L] | optimum solubility parameter [3] [%] | Structure (SMILES) |
| --- | --- | --- | --- | --- | --- |
| 300 | 0.04 | 54 |  |  | CCCCCCCCCCCC[N+](C)(C)CCN(CCCS(=O)(=O)[O-])C(C)=O [Example 2, 4-acetyl-4-aza-6(N,N-dimethyl-laurylammonium)hexane sulfonate] |
| 80 | 0.01 | 35 |  |  | CCCCCCCCCCCCCCCCCC[N+](C)(C)CCN(CCCS(=O)(=O)[O-])C(C)=O [Example 3, 4-acetyl-4-aza-6 (N,N-dimethyl stearylammonium) hexane sulfonate] |
| 300 | 0.15 | 49 |  |  | CCCCCCCCCCCC[N+](C)(C)CCCN(CCCS(=O)(=O)[O-])C(C)=O [Example 5, 4-acetyl-4-aza-7 (N,N-dimethyl laurylammonium)heptane sulfonate] |
| 4 | 0.0028 | 39 |  |  | CCCCCCCCCCCCCCCCCC[N+](C)(C)CCCN(CCCCS(=O)(=O)[O-])C(C)=O [Example 7, 5-acetyl-5-aza-8 (N,N-dimethylstearylammonium)octane sulfonate] |
|  |  |  | 30 | 55 | CCCCCCCCCCCCCCCCCC[N+](C)(C)CCN(CCCS(=O)(=O)[O-])C(C)=O [drawing 25] |
